Measurements published in ChEMBL document CHEMBL1201862, “PubChem BioAssay data set” (2004).
Activity calls are given as the source filed them.

Key:
[1] = molecular target: Photoreceptor-specific nuclear receptor (Homo sapiens, UniProt Q9Y5X4); type: functional, cell-based;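 also: CHO-S cells with Gal4-NCOR and VP16-NR2E3 two-hybrid luciferase reporter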
[2] = SNU-C1 cell viability reduction, dose response, CellTiter-Glo luminescence (AID 1117323); type: functional, cell-based
[3] = cytotoxicity toward HCT116 cells – cell-based, CellTiter-Glo luminescence, IC50, dose response (AID 1117332); type: functional; details: HCT-116
[4] = blockers of bursicon-stimulated LGR2 cAMP reporter – cell-based, HEK293, CRE-luciferase reporter, cherry pick, set 2, dose response (AID 743343); type: functional;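 also: transfected cells were stimulated with diluted bursicon conditioned medium after compound addition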
Nonstructural protein 1 = Nonstructural protein 1 (Influenza A virus, UniProt Q194T2); type: functional, Influenza A virus (A/California/07/2009(H1N1))
Chain of Nonstructural protein 1 (Q194T2 whole entry): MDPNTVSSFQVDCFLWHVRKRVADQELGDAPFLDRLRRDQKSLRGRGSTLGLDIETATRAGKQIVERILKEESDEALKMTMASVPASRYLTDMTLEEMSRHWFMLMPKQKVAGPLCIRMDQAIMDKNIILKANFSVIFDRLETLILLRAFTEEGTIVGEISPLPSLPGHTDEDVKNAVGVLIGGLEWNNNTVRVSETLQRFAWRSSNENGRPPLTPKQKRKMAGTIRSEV

[5] = rise of 4N DNA cells, HeLa – IC50, dose response (AID 1117351); type: functional, cell-based
[6] = DRD fibroblast viability loss – cell-based, non-viral oncogenic, luminescence, dose response (AID 1934); type: functional; details: Homo sapiens
[7] = cytotoxicity toward HT-29 cells – cell-based, CellTiter-Glo luminescence, IC50, dose response (AID 1117330); type: functional
[8] = CellTiter-Glo luminescence survival assay, SW480 colon tumor line, concentration-response curve, half-maximal inhibitory concentration (AID 1117338); type: functional
BJ [9] = assay: BJ-TERT-LT-ST fibroblast viability loss – cell-based, RAS-independent, luminescence, dose response (AID 1935); type: functional; details: Homo sapiens;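 also: BJ fibroblasts immortalized with TERT plus LT and ST oncogenes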
[10] = blockade of melanocortin 4 receptor signaling – cell-based, plate reader, cherry pick, counter-screen for LGR2 antagonist project, dose response (AID 743444); type: functional;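 also: transfected HEK 293 cells stimulated with alpha-MSH peptide; potency of inhibitors of the alpha-MSH evoked signal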
[11] = NIH-3T3 fibroblast cytotoxicity, dose response, cytotoxicity control, cell-based, fluorescence, Alamar Blue, secondary assay (AID 2327); type: functional;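 also: NIH-3T3 mouse fibroblasts cultured with fluconazole at 8 µg/mL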
[12] = cytotoxicity toward Colo320 cells – cell-based, CellTiter-Glo luminescence, IC50, dose response (AID 1117334); type: functional; details: COLO 320
[13] = rise of 2N DNA cells, HeLa – IC50, dose response (AID 1117349); type: functional, cell-based
[14] = viability loss in THP-1 monocytes – THP-1 cells, cytotoxicity control for Vif-APOBEC3G degradation inhibitor project, dose response (AID 1117359); type: functional; details: THP-1
BJ [15] = assay: cells; type: functional, cell-based; details: Homo sapiens
[16] = RKO cell viability reduction, dose response, CellTiter-Glo luminescence (AID 1117322); type: functional
Protein RecA = molecular target: T1, Protein RecA (Mycobacterium tuberculosis, UniProt P9WHJ3); assay: Fluorescence Cell-Free Homogeneous Dose Retest to Identify Inhibitors of RecA-Intein Splicing Activity. [Related pubchem assays (depositor defined):AID2097, AID2223, AID489010, AID492950]; type: functional
T1 sequence (P9WHJ3 whole entry): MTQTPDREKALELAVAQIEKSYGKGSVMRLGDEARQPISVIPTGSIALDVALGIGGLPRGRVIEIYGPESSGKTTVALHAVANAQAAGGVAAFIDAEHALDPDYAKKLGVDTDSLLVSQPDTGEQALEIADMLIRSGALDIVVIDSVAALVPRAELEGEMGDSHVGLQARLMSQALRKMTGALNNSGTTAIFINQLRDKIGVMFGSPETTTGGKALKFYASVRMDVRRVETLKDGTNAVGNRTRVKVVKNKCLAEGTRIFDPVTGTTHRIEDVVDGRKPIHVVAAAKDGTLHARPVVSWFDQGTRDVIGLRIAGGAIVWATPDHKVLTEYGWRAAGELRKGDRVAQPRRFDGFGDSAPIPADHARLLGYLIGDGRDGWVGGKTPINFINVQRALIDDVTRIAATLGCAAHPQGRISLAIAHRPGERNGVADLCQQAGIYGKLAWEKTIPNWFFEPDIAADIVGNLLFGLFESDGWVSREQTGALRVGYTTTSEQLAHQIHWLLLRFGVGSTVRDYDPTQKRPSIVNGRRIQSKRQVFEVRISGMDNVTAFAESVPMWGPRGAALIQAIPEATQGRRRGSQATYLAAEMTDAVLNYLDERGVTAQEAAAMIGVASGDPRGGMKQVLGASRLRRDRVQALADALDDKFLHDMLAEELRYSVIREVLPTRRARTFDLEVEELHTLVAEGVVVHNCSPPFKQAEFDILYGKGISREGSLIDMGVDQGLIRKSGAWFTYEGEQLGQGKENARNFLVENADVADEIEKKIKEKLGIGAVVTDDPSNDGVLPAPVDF

[17] = A549 cell cytotoxicity, dose response, cytotoxicity control, plate reader, cherry-pick, antagonist series (AID 743412); type: functional, cell-based
[18] = viability loss in HEK293 cells – cell-based, plate reader, cherry-picked samples, cytotoxicity control, dose response (AID 743446); type: functional
BJ [19] = assay: BJ-TERT fibroblast viability loss – cell-based, RAS-independent, luminescence, dose response (AID 1933); type: functional; details: Homo sapiens
[20] = fluconazole-exposed Candida albicans growth modulators – fluorescence, retest, confirmation (AID 2467); type: functional, cell-based
[21] = molecular target: T2, Replicative DNA helicase DnaB (Mycobacterium tuberculosis, UniProt P9WMR3); assay: DnaB intein splicing inhibitors, dose response, biochemical, cell-free fluorescence (AID 449749); type: functional
T2 sequence (P9WMR3 whole entry): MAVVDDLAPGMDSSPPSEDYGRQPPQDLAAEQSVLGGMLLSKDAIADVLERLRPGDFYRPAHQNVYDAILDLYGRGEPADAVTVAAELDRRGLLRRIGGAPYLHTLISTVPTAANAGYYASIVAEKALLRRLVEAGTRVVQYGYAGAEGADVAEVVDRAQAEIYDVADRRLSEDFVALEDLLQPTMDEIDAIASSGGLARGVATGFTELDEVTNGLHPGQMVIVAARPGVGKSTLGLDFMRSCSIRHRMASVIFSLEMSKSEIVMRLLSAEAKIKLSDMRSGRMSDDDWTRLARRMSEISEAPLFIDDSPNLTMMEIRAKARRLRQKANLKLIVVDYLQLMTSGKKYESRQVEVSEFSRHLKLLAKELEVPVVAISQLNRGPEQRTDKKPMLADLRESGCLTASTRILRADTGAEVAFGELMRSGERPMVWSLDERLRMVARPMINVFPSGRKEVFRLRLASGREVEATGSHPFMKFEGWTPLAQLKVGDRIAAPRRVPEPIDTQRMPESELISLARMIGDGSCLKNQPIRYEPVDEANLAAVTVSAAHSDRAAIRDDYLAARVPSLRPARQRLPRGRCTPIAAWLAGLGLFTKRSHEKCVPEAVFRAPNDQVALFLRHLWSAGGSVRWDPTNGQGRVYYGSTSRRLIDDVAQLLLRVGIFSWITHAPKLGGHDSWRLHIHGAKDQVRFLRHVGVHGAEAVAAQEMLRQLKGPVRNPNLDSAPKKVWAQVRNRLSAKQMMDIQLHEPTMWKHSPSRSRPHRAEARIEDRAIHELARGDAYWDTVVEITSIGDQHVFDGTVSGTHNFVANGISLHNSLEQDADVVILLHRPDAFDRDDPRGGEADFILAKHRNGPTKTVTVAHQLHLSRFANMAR

Caspase-6 = molecular target: T3, Caspase-6 (Homo sapiens, UniProt P55212); assay: inhibition of CASP6 peptide cleavage – biochemical, VEID-R110 fluorescence, cherry-pick, dose response (AID 720632)
T3 sequence (P55212 whole entry): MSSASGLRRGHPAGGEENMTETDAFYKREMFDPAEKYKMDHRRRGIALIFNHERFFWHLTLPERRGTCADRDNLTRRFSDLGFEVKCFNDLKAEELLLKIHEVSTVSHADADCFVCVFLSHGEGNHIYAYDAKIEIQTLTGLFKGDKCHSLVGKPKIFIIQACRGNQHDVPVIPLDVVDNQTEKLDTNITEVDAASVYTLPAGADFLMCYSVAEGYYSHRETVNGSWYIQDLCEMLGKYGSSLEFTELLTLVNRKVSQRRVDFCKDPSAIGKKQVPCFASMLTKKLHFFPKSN

[22] = Reduced DLD-1 viability, concentration-response, CellTiter-Glo luminescence (AID 1117352); type: functional
[23] = HCT116 cell viability decrease, GSK3B pretreatment – CellTiter-Glo, IC50, dose response (AID 1117339); type: functional; details: HCT-116
[24] = molecular target: Heat shock protein HSP 90-alpha (Homo sapiens, UniProt P07900); type: functional, organism-based
[25] = toxicity toward HepG2 liver cells – cell-based, plate reader, cherry-pick, antagonist series, cytotoxicity control, dose response (AID 743416); type: functional
[26] = inhibition of ARNT PAS-B/TACC3 complex formation – biochemical, AlphaScreen, cherry-picked samples, confirmation (AID 651703); type: functional, Homo sapiens;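 also: His-tagged ARNT PAS-B domain paired with GST-TACC3 E629A dimer coactivator fragment; potency of inhibitors that break up the complex and lower AlphaScreen signal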
[27] = blockers of CRF-binding protein–CRF-R2 complex – cell-based, uHTS hits, 384-well, dose response (AID 651639); type: functional, Homo sapiens; details: read-out: IC50_Mean
[28] = molecular target: T4, Corticotropin-releasing factor receptor 2/Corticotropin-releasing factor-binding protein (Homo sapiens, UniProt P24387+Q13324); assay: Dose Response confirmation of uHTS hits for small molecule antagonists of the CRF-binding protein and CRF-R2 receptor complex.; type: functional; details: read-out: IC50_Mean
T4 sequence (Q13324 whole entry): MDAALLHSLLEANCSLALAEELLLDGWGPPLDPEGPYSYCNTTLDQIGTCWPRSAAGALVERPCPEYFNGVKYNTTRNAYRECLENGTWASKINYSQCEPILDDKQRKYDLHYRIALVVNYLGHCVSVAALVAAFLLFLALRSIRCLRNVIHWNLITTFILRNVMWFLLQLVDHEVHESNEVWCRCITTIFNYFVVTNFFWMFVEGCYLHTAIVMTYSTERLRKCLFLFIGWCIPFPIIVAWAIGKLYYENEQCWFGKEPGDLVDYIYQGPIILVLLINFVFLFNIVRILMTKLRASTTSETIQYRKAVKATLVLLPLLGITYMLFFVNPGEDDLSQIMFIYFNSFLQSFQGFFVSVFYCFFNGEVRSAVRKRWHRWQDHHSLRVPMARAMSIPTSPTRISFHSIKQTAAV
T4 sequence (P24387 whole entry): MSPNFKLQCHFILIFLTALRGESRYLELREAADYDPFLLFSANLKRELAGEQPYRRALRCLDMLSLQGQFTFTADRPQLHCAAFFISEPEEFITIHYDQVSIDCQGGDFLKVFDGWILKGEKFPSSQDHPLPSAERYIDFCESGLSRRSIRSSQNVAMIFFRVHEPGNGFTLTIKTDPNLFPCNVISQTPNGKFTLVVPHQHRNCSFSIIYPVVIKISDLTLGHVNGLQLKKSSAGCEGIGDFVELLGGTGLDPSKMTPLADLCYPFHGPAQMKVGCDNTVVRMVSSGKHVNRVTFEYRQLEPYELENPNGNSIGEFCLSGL

[29] = molecular target: T4, Corticotropin-releasing factor receptor 2/Corticotropin-releasing factor-binding protein; assay: activators of CRF receptor 2 with binding protein – uHTS hits, confirmation (AID 602473); type: functional; details: read-out: EC50_Mean

Chain of Photoreceptor-specific nuclear receptor (Q9Y5X4 whole entry, the tested form may be a part): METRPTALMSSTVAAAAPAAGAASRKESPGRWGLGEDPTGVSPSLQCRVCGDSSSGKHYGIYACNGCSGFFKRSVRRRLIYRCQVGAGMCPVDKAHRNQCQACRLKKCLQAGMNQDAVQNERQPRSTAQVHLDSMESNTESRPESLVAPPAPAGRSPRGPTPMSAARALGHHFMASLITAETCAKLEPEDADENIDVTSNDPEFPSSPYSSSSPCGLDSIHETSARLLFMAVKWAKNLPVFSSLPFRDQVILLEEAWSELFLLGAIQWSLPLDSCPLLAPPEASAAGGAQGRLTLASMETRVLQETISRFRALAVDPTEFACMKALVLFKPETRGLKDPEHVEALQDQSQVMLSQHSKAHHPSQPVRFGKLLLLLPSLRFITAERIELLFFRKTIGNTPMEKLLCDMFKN

O=[N+]([O-])c1ccc(O)c2ncccc12 [NITROXOLINE]
IC50 [1]: 8.96 µM (active)
IC50 [2]: > 20 µM (inactive)
IC50 [3]: 0.921 µM (active)
AC50 [4]: 54.9 µM (active)
IC50 (Nonstructural protein 1): 4.72 µM (active)
IC50 [5]: > 10 µM (inactive)
EC50 [6]: 16.6 µM (active)
IC50 [7]: > 20 µM (inactive)
IC50 [8]: 0.605 µM (active)
EC50 (BJ [9]): 16.7 µM (inconclusive)
AC50 [10]: 48.7 µM (active)
EC50 [11]: 9.52 µM (inconclusive)
IC50 [12]: 0.684 µM (active)
IC50 [13]: 1.7 µM (active)
CC50 [14]: 5.53 µM (active)
EC50 (BJ [15]): 28.8 µM (active)
IC50 [16]: 0.71 µM (active)
EC50 (Protein RecA): 14.4 µM (active)
AC50 [17]: 12.1 µM (active)
AC50 [18]: 11.5 µM (active)
EC50 (BJ [19]): 9.44 µM (active)
EC50 [20]: 0.161 µM (active)
AC50 [21]: 9.95 µM (active)
AC50 (Caspase-6): 14.9 µM (active)
IC50 [22]: 1.38 µM (active)
IC50 [23]: 0.375 µM (active)
AC50 [24]: 0.996 µM (active)
AC50 [25]: 9.7 µM (active)

COC(=O)C(CC#Cc1ccc2c(c1)[C@]1(C(=O)N2)[C@H](c2ccc(OCCO)cc2)N2[C@H](c3ccccc3)[C@H](c3ccccc3)OC(=O)[C@H]2[C@@H]1C(=O)N1CCCCCCC1)C(=O)OC
AC50 [26]: 126 µM (active)

Cc1cc(C)cc(N(C(=O)c2nsc(Cl)c2Cl)C(C(=O)NC2CCCC2)c2ccc(O)cc2)c1 (configuration not stated)
IC50 [27]: > 20 µM (inactive)
IC50 [28]: 6.02 µM (active)
EC50 [29]: > 53 µM (inactive)
